The values below are quoted from earlier work in patent publication US20250262160A1, “COMPOSITIONS FOR MODIFIED RELEASE OF ACTIVE INGREDIENTS” (PROLEVI BIO AB, priority 2022, published 2025).

By bioavailability is commonly meant dose-corrected exposure relative to a reference, in per cent. A word on the Tmax: it is the time from dosing to the highest level.

Each structure is given as a SMILES string. Read-outs that look alike come from different tables or passages of the source.

The conditions of series [1]: assumed parameter for IVIVC, as reported in literature.

As for `COc1ccc2[nH]cc(CCNC(C)=O)c2c1` [melatonin], in series [1], the “Half-life (T1/2)” value was 45 min and the “oral bioavailability (BA)” value is given as 15%. Moreover, the “Volume of distribution (Vd)” value in series [1] (body weight 75 Kg) was 1602 L.
For the compound `N[C@@H](Cc1cc(I)c(Oc2ccc(O)c(I)c2)c(I)c1)C(=O)O` [Formulation T3, triiodothyronine], the “Volume of distribution (Vd)” value (body weight 75 kg euthyroid individual, parameter used for IVIVC) was 0.2 L/kg. For the same compound, the “Half-life (t½) after baseline (120 ng/dL) correction” value (estimated, parameter used for IVIVC) is given as 4 h. For the same compound, the elimination half-life (in adults) was 23 to 25 h. In addition, for the setting “in vivo”, the biological half-life is 2.5 days and the “estimated baseline corrected half-life” value was 4 h. Moreover, for the setting “parameter used for IVIVC”, the bioavailability is reported as 95%. Under “thyroidectomized patients administered exogenous hormone”, the Tmax was 2.9 h. Where the note is “thyroidectomized patients administered exogenous hormone, after last LT3 dose withdrawal”, the T1/2 half-life is 3.62 h.
